For 6 molecules, TGI and GI50 results are on record in PubChem BioAssay (NCI).

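Where inhibition never reached the appropriate level, the endpoint shown equals the highest concentration tested. Otherwise, values were interpolated linearly from a five-concentration, 48-hour dose response in 96-well plates. Here, GI50 denotes the concentration required for 50% inhibition of growth. TGI: total growth inhibition.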

Test systems include ACHN renal; HCC-2998 colon; HOP-62 NSCLC; HT29 colon; LOX IMVI melanoma; MDA-MB-435; NCI-H522 lung; OVCAR-4 ovarian; RXF 393 renal; TK-10 renal.
Common to all, as to assay: DTP human tumour cell line panel, 48 h

Regarding `CC1=CC(C/C(C)=C/COc2ccc3ccc(=O)oc3c2)OC1=O` (stereo not given), the TGI with ACHN renal, with HCC-2998 colon, with HOP-62 NSCLC, with HT29 colon, in the experiment on LOX IMVI melanoma and in the experiment with MDA-MB-435 was > 100 µM in each case. Further, the TGI in the experiment with NCI-H522 lung, in the experiment with OVCAR-4 ovarian, in the experiment with RXF 393 renal and in the experiment with TK-10 renal was > 100 µM in each case.
On to `C=C1CCC(CC[C@@H]2CC[C@]3(OC2)O[C@@]2(O)CC[C@]3(C)OC2(C)C)C(C)(C)[C@H]1C/C=C1/C(=O)OC[C@@H]1O` (stereo not given in full), for which the TGI was determined as 6.89 µM in the experiment on ACHN renal; 10.2 µM in the experiment on HCC-2998 colon; 19.9 µM with HOP-62 NSCLC; 5.01 µM in the experiment with HT29 colon; 1.88 µM in the experiment on LOX IMVI melanoma; 5.82 µM in the experiment on MDA-MB-435. Also, the TGI in the experiment with NCI-H522 lung worked out at 3.5 µM; with OVCAR-4 ovarian, 5.51 µM; with RXF 393 renal it was 4.88 µM; in the experiment on TK-10 renal, 11.5 µM.
`O=S(=O)(Nc1cc(Sc2cccc3cccnc23)c(O)c2ccccc12)c1ccccc1`: the GI50 with ACHN renal is 0.772 µM; in the experiment on HCC-2998 colon it was 4.77 µM; with HOP-62 NSCLC, 1.01 µM; with HT29 colon it was 2.42 µM; in the experiment on LOX IMVI melanoma it was 0.522 µM; with MDA-MB-435 it was 2.01 µM. Besides, the GI50 is 2.12 µM in the experiment with NCI-H522 lung, 0.474 µM with OVCAR-4 ovarian, 2.4 µM with RXF 393 renal and 5.08 µM in the experiment on TK-10 renal. The TGI in the experiment with ACHN renal stood at 5.54 µM; in the experiment on HCC-2998 colon it was 19.1 µM; in the experiment with HOP-62 NSCLC, 25.4 µM; with HT29 colon, 14.4 µM; with LOX IMVI melanoma, 10.1 µM; in the experiment with MDA-MB-435, 12.6 µM. Moreover, the TGI in the experiment on NCI-H522 lung worked out at 8.17 µM; in the experiment with OVCAR-4 ovarian it was 1.75 µM; with RXF 393 renal it was 12.3 µM; with TK-10 renal, 18.3 µM.
In the case of `CN(C)CCN1C(=O)c2ccc3c4c(ccc(c24)C1=O)C(=O)N(CCN=C=S)C3=O`, the GI50 in the experiment on ACHN renal was 0.0256 µM; with HCC-2998 colon, 0.172 µM; in the experiment with HOP-62 NSCLC, 0.0503 µM; in the experiment on HT29 colon, 0.0297 µM; in the experiment on LOX IMVI melanoma, 0.0352 µM; in the experiment on MDA-MB-435, 0.0585 µM. For the same molecule, the GI50 is 0.0311 µM with NCI-H522 lung, 0.13 µM in the experiment on OVCAR-4 ovarian, 0.0416 µM with RXF 393 renal and 0.0218 µM in the experiment with TK-10 renal. Further, the TGI turned out to be 0.123 µM in the experiment on ACHN renal; 0.381 µM with HCC-2998 colon; 0.194 µM in the experiment on HOP-62 NSCLC; 0.115 µM with HT29 colon; 0.127 µM in the experiment on LOX IMVI melanoma; 0.249 µM with MDA-MB-435. In addition, the TGI with NCI-H522 lung was determined as 0.145 µM; with OVCAR-4 ovarian, 0.365 µM; in the experiment on RXF 393 renal, 0.177 µM; in the experiment with TK-10 renal it was 0.109 µM.
Regarding `C#Cc1c(I)n(C2OC(CO[Si](C)(C)C(C)(C)C)C3OC(C)(C)OC32)c(=O)[nH]c1=O` (stereo not given), the GI50 is 17.8 µM in the experiment on ACHN renal; 2.36 µM in the experiment on HCC-2998 colon; 20 µM with HOP-62 NSCLC; 19.2 µM in the experiment with HT29 colon; 3.42 µM in the experiment on LOX IMVI melanoma; 15 µM in the experiment on MDA-MB-435. In addition, the GI50 with NCI-H522 lung is 1.72 µM; in the experiment on OVCAR-4 ovarian, 17.8 µM; in the experiment on RXF 393 renal, 3.68 µM; in the experiment on TK-10 renal, 11.2 µM. The TGI with ACHN renal amounted to 39.7 µM; in the experiment with HCC-2998 colon, 6.38 µM; in the experiment on HOP-62 NSCLC, 38.4 µM; in the experiment with HT29 colon, 52.2 µM; with LOX IMVI melanoma it was 18.5 µM; with MDA-MB-435 it was 31 µM. Moreover, the TGI with NCI-H522 lung came to 3.52 µM; in the experiment on OVCAR-4 ovarian it was 37.6 µM; in the experiment with RXF 393 renal it was 14.2 µM; in the experiment on TK-10 renal, 26.5 µM.
Turning to `O=c1cc(NC2CCN(CCCc3ccccc3)CC2)c2cc(Cl)ccc2o1`, the GI50 with ACHN renal was 4.86 µM; with HCC-2998 colon it was 13 µM; in the experiment with HOP-62 NSCLC, 17.3 µM; in the experiment with HT29 colon it was 4.6 µM; with LOX IMVI melanoma, 5.8 µM; with MDA-MB-435, 5.26 µM. Besides, the GI50 with NCI-H522 lung was 8.35 µM; in the experiment with OVCAR-4 ovarian, 13.2 µM; with RXF 393 renal, 5.88 µM; in the experiment on TK-10 renal it was 13.4 µM. Also, the TGI was 17.6 µM with ACHN renal; 27.3 µM in the experiment with HCC-2998 colon; 33.3 µM in the experiment with HOP-62 NSCLC; 19.5 µM in the experiment with HT29 colon; 19.2 µM with LOX IMVI melanoma; 18.1 µM with MDA-MB-435. Further, the TGI stood at 23.5 µM in the experiment with NCI-H522 lung, 35.6 µM with OVCAR-4 ovarian, 21.2 µM with RXF 393 renal and 26.6 µM in the experiment on TK-10 renal.
